Assay results published in publication PMC5075098, “Preclinical Evaluation of the Stability, Safety, and Efficacy of CD101, a Novel Echinocandin” (Antimicrobial Agents and Chemotherapy, 2016).
In brackets after ≈: the same amount, converted by molar mass. Like-named read-outs stand apart in the source and are kept apart here. Starred links: 1 amine or outer side, 2 acyl side, 3 side chain; linkers in the order of their positions; H or OH if unused. Positions of bridges follow the written chain, without caps; N, C: chain ends. Non-standard residues stand in square brackets, D forms with d. Residues, ends and D or L forms follow the SMILES beside them. *: point of attachment. pTerphenylCO(4''-OnC5H11) = CCCCCOc1ccc(-c2ccc(-c3ccc(C(=O)*)cc3)cc2)cc1; Orn(4R-OH,5R-OH) = O=C([C@H](C[C@@H](O)[C@@H](O)N[*:3])N[*:1])[*:2]; hTyr(3S-OH,4S-OH) = N[C@H](C(=O)O)[C@H](O)[C@@H](O)c1ccc(O)cc1; Pro(3S-OH,4S-Me) = C[C@H]1CN[C@H](C(=O)O)[C@H]1O; Hyp = O=C(O)[C@@H]1C[C@@H](O)CN1

What was measured:
[1] = system: A. fumigatus (ATCC 13073); assay: Neutropenic mouse model of A. fumigatus infection, survival; conditions: BID for 5 days; CD101 all dose groups and anidulafungin 1 and 5 mg/kg i.v. (P < 0.05); amphotericin B 0.3 mg/kg i.p.
Experimental: Animals were immunosuppressed by three i.p. injections of cyclophosphamide (the first injection at 6 mg/mouse 3 days before inoculation and the second and third injections at 2 mg/mouse on 1 and 4 days after inoculation). […] Dose administration started 1 and 7 h after infection. […] An increase of 50% or more in the survival rate of the active groups compared to the vehicle group indicated significant antifungal efficacy.

[2] = Plasma protein binding, ultracentrifugation; format: in vitro ADME; conditions: human, ∼500,000 × g 2.5 h at 37°C, LC-MS/MS, SEM, read-out: % of protein bound (SEM) (converted)
Experimental: Ultracentrifugation ([15]) was used to compare human plasma protein binding of CD101 and anidulafungin. […] Following ultracentrifugation, the supernatant was transferred to a microtiter plate containing 50 μl plasma for matrix-matching purposes and quenched with 400 μl of cold acetonitrile (ACN) with 0.1% formic acid containing diclofenac as an internal standard. Quenched samples were centrifuged for 5 min at 10°C (e.g., 3,100 rpm [2,000 × g]) to sediment the precipitated proteins, and 50 μl supernatant was transferred to a microtiter plate containing 100 μl of water prior to analysis by LC-MS/MS. The percentage bound was the difference between 100% and the percentage free (the ratio of the concentration in supernatant to the total concentration).

[3] = 2-week repeat-dose toxicity and hepatotoxicity screening; format: in vivo, Sprague-Dawley rats
Experimental: Dosing solutions were prepared in a vehicle comprising 5% mannitol containing 2.5% polysorbate 80 (Tween 80) in 0.3% acetic acid.
Animals were randomly assigned to dose groups and stratified by weight to achieve similar group mean body weights (males, 255 to 318 g; females, 192 to 215 g). Blood, urine, and liver samples (excised and preserved in 10% neutral buffered formalin) were obtained on day 15. Plasma liver enzyme levels were assessed. Liver tissues were processed to paraffin blocks and prepared for slides. Slides were stained with hematoxylin and eosin. Hematology data were collected using the Advia 120 hematology analyzer. Coagulation data were collected using the Diagnostica STA compact coagulation analyzer. Clinical chemistry data were collected using the AU400 chemistry analyzer. Qualitative and quantitative urinalysis was recorded using iRICELL 1500 UA analyzer. Clinical effects were assessed for determination of the maximum tolerated dose (MTD).
Statistical evaluations were performed on in-life and clinical pathology numerical data to determine statistical significance following a decision tree. First, the homogeneity of the data was determined by Bartlett's test. If the data were homogeneous, a one-way analysis of variance was performed to assess statistical significance. If statistically significant differences between the means were found, Dunnett's test was used to determine the degree of significance from the control means (P < 0.05, P < 0.01, and P < 0.001). If the data were nonhomogeneous, the Kruskal-Wallis nonparametric analysis was performed to assess statistical significance. If statistically significant differences between the means were found (P < 0.05, P < 0.01, and P < 0.001), the Mann-Whitney U test was used to determine the degree of significance from the control means (P < 0.05, P < 0.01, and P < 0.001).

[4] = Reactive metabolite screening (glutathione trapping); format: in vitro ADME; conditions: PBS pH 7.4, excess GSH, 37°C, LC with high-resolution MS
Experimental: Samples were diluted to 10 μg/ml into 50:50 acetonitrile-water with 0.1 formic acid. Samples were analyzed by LC (Agilent 1100) with high-resolution MS (Waters quadrupole time of flight [Q-TOF] Premier mass spectrometer with electrospray interface) with concurrent low- and high-energy scans to obtain full-scan parent and product fragment ions. The analytical column was a Phenomenex Kinetex (2.6-μm C18, 100 by 3.0 mm). Waters MassLynx 4.1 software was used for data analysis.

[5] = system: C. albicans R303; conditions: CLSI broth microdilution, read after 24 h at 35°C, prominent growth inhibition (∼50%)
Experimental: (§1) Enumeration of MIC and MEC assay inoculum viable counts was performed by plating aliquots of the starting assay inoculum on Sabouraud dextrose agar.

[6] = after 44 h; cited from earlier work
Excerpt: CD101, a novel echinocandin being developed as a high-exposure, once-weekly intravenous (i.v.) formulation for the treatment and prevention of systemic fungal infections, was designed to be chemically and metabolically stable to avoid hepatotoxicity while retaining the antifungal activity of an echinocandin.

[7] = system: A. fumigatus (ATCC 13073); assay: MEC/MIC, CLSI broth microdilution; conditions: 24 h at 35°C, rounded/compact hyphal morphology
Experimental: as §1

[8] = system: C. albicans R303; assay: Neutropenic mouse model of C. albicans infection, kidney colony counts
Experimental: Immunosuppression was induced by two intraperitoneal (i.p.) injections of cyclophosphamide at 150 mg/kg 4 days before and 100 mg/kg 1 day before inoculation. […] The animals in the fluconazole group were sacrificed 48 h after infection.

[9] = system: C. albicans R303; assay: microbe, parasite or virus in culture; conditions: Candida albicans, R303, 24 h
Experimental: as §1

[10] = anidulafungin 40 mg/kg/day i.v. 14 days, rats, relative to controls, P ≤ 0.001
[11] = anidulafungin 40 mg/kg/day i.v. 14 days, rats, P ≤ 0.001
[12] = anidulafungin 40 mg/kg/day i.v. 14 days, rats, P ≤ 0.01

Question: Which “10-day survival rate compared to the vehicle group” value [1] does the source give for C[C@@H]1[C@H](O)[C@@H](C)/C=C/C=C/C=C/C=C/C=C/C=C/C=C/[C@H](O[C@@H]2O[C@H](C)[C@@H](O)[C@H](N)[C@@H]2O)C[C@@H]2O[C@](O)(C[C@@H](O)C[C@@H](O)[C@H](O)CC[C@@H](O)C[C@@H](O)CC(=O)O[C@H]1C)C[C@H](O)[C@H]2C(=O)O [amphotericin B, reference compound] here?
Answer: Its value is “significant increase”.

Question: Which results are given for CCCCCOc1ccc(-c2ccc(-c3ccc(C(=O)N[C@H]4C[C@@H](O)[C@@H](O)NC(=O)[C@@H]5[C@@H](O)[C@@H](C)CN5C(=O)[C@H]([C@@H](C)O)NC(=O)[C@H]([C@H](O)[C@@H](O)c5ccc(O)cc5)NC(=O)[C@@H]5C[C@@H](O)CN5C(=O)[C@H]([C@@H](C)O)NC4=O)cc3)cc2)cc1 [anidulafungin] ({pTerphenylCO(4''-OnC5H11)}-[Orn(4R-OH,5R-OH)]T[Hyp][hTyr(3S-OH,4S-OH)]T[Pro(3S-OH,4S-Me)]; lactam 1-C)?
Answer: fraction unbound ([2]; 1 μg/ml): 0.022; fraction unbound ([2]; 5 μg/ml): 0.014; repeat-dose systemic or target organ toxicity ([3]; 14-day i.v. infusion, rats, CD101 20 mg/kg/day, anidulafungin 40 mg/kg/day (comparable exposure)): severe hemolytic anemia and liver toxicity; spleen finding upon necropsy ([3]; anidulafungin 40 mg/kg/day i.v. 14 days, rats): dark and enlarged spleens; increase in mean alkaline phosphatase (ALP) [3, 10]: up to 47%; increase in mean aspartate aminotransferase (AST) [3, 10]: up to 68%; increase in total bilirubin [3, 10]: up to 2 fold; increase in mean alanine transaminase (ALT) ([3]; anidulafungin 40 mg/kg/day i.v. 14 days, rats, relative to controls, P ≤ 0.05): up to 27%; decrease in the albumin/globulin ratio [3, 11]: up to 15%; increases in platelets [3, 11]: up to 44%; increases in reticulocyte (polychromasia), neutrophil, and eosinophil counts [3, 11]: up to 4 fold; decreases in activated partial thromboplastin time [3, 12]: up to 23%; decreases in red blood cells (RBC), hemoglobin, and hematocrit [3, 12]: up to 19%; increases in globulin [3, 12]: up to 19%; increases in serum cholesterol [3, 12]: up to 52%; reduced body weights and food consumption, decrease relative to controls ([3]; anidulafungin 40 mg/kg/day i.v. infusion 14 days, rats, P ≤ 0.05): up to 9%; microscopic changes in the liver ([3]; day 15, H&E, CD101 2, 6, or 20 mg/kg/day, anidulafungin 40 mg/kg/day (some of the females)): minimal to moderate single-cell necrosis affecting the hepatocytes; GSH adduct formation (reactive intermediate) [4]: did form a GSH adduct; MIC [5]: 0.03 µg/mL (≈ 0.0263 µM); % remaining in human plasma [6]: 7%; MEC [7]: 0.004 µg/mL; 10-day survival rate compared to the vehicle group [1]: significant increase; log reduction in CFU per gram relative to vehicle ([8]; 0.6 mg/kg single i.v. dose, 24, 48, 72 h): up to 2.7 log; antimicrobial effect (≥99%, 2-log reduction in CFU per gram) ([8]; anidulafungin 0.6 mg/kg i.v., at 24 and 48 h): significant

Question: Which MIC [9] does the source give for OC(Cn1cncn1)(Cn1cncn1)c1ccc(F)cc1F [fluconazole, reference compound] here?
Answer: The MIC was 2 µg/mL (≈ 6.53 µM).

Question: And the “reduction in CFU per gram of paired kidneys relative to vehicle” value ([8]; 20 mg/kg oral, 2 h after infection, 48 h)?
Answer: Its value is 87%.

Question: And the “log reduction in CFU per gram relative to vehicle” value ([8]; 20 mg/kg oral, 48 h)?
Answer: The value was 1.1 log.
